Target: Dual specificity mitogen-activated protein kinase kinase 1 (Homo sapiens, UniProt Q02750)
Assay: LANCE Ultra Assay: The LANCE Ultra assay kit was purchased from PerkinElmer. The ULight-MBP peptide, Europium labeled Antibody and LANCE Detection buffer were purchased from PerkinElmer. The APT and dimethylsulfoxide were purchased from Sigma-Aldrich. The 5× Kinase buffer were purchased from Invitrogen. […] A Mek1 kinase assay (LANCE, PerkinElmer) was developed for supporting compound profiling and lead optimization. […] Then the phosphorylated Erk1 was able to phosphorylate ULight-MBP peptide (PerkinElmer). The phosphorylated peptide was detected by Europium-anti-phospho-MBP (PerkinElmer). […] After quenching the reaction with […], 2 nM Europium-anti-phospho-MBP was added to the reaction mixture and incubated for 60 min, followed by a detection using EnVision Multilabel Plate Reader (PerkinElmer).

Sequence of Dual specificity mitogen-activated protein kinase kinase 1 (Q02750 whole entry): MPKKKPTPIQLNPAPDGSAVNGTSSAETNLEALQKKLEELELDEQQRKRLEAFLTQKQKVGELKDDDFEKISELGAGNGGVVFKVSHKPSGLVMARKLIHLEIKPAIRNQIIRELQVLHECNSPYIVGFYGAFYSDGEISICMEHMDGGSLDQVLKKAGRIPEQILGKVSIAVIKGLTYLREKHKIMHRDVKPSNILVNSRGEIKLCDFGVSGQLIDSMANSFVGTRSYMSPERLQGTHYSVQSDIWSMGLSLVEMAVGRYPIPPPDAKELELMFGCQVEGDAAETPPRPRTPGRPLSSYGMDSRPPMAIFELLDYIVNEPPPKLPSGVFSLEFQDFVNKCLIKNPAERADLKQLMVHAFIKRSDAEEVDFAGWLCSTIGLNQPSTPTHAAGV

Q: Cn1c(Nc2ccc(I)cc2F)c(C(=O)NOCCO)c2c(c1=O)CC(C)(C)C2 was tested. Which IC50 did it give?
A: < 500 nM

— ChEMBL document CHEMBL5726111, “Substituted pyridinone compounds as MEK inhibitors” (2017)
